Test results reported in ChEMBL document CHEMBL1201862, “PubChem BioAssay data set” (2004).
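Each compound was tested at five concentrations against cells in 96-well plates for 48 hours. At the GI50, growth is halved.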 Calls of active or inactive are those of the source. Rule as the data show it: active = GI50 up to about 1.1 µM and inactive = higher.

How the values were obtained:
Assay in all cases: NCI tumour cell line growth inhibition, 48 h
XF498 = system: XF498
SNB-78 = system: SNB-78
M19-MEL = system: M19-MEL
RXF 631 = system: RXF 631
LXFL 529 = system: LXFL 529
KM-20L2 = system: KM-20L2
DMS-114 = system: DMS-114
DMS-273 = system: DMS-273
HOP-18 = system: HOP-18

Measured: GI50

CCOC(=O)/C(ON)=C(/CC/C(C(=O)OC)=C(\ON)C(=O)OCC)C(=O)OC
inactive: XF498 > 100 µM | SNB-78 > 100 µM | M19-MEL > 100 µM | RXF 631 > 100 µM | LXFL 529 > 100 µM | KM-20L2 > 100 µM | DMS-114 > 100 µM | DMS-273 > 100 µM | HOP-18 > 100 µM

CC1=CC=C2C(C)(C)CC[C@@H]3OC(=O)[C@H]1[C@]23C
inactive: XF498 > 100 µM | SNB-78 37.1 µM | M19-MEL > 100 µM | RXF 631 > 100 µM | LXFL 529 > 100 µM | KM-20L2 > 100 µM | DMS-114 > 100 µM | DMS-273 > 100 µM | HOP-18 > 100 µM
